The target in test [1] is T1, Sentrin-specific protease 7 (Homo sapiens, UniProt Q9BQF6).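 Also: Luminescence-based dose-response confirmation of ultra-high-throughput screening hits, measuring inhibition of SENP7.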
T1 sequence (Q9BQF6 whole entry): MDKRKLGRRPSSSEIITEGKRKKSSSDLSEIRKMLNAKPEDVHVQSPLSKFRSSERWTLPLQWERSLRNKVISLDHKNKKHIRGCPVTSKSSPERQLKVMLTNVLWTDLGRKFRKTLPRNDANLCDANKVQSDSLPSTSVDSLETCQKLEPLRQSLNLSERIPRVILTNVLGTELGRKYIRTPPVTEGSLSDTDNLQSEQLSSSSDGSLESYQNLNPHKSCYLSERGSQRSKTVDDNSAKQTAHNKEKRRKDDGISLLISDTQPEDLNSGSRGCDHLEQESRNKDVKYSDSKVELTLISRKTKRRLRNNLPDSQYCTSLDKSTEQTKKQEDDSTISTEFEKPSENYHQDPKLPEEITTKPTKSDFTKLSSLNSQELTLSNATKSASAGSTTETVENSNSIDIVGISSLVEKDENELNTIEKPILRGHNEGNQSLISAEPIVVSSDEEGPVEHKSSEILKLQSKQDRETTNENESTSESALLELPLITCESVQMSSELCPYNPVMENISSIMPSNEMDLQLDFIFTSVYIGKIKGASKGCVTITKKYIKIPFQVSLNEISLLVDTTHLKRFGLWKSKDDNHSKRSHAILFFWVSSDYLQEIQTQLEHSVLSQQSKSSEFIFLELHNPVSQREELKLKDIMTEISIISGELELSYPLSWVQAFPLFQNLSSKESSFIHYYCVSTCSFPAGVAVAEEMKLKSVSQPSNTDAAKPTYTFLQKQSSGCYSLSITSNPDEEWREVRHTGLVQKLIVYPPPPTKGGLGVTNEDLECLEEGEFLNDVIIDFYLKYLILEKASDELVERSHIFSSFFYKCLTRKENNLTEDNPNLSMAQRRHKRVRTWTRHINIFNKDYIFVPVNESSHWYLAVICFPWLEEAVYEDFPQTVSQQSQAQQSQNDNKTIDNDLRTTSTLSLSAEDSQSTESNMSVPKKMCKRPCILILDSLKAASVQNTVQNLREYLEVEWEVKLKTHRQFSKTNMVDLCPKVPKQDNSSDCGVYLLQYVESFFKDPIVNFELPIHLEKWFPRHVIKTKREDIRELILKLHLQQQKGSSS
In kind it is functional.

Test [2] deals with Receptor tyrosine-protein kinase erbB-2 (Homo sapiens, UniProt P04626). Description: Navigating the Kinome. Panel member name: ERBB2. In kind it is functional.
In test [3] the target is Dual specificity tyrosine-phosphorylation-regulated kinase 3 (Homo sapiens, UniProt O43781). In kind it is functional.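 Also: measured as one member of a broad kinase panel.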
Test [4] concerns the target Fibroblast growth factor receptor 3 (Homo sapiens, UniProt P22607). In kind it is functional.
The target of test [5] is Serine/threonine-protein kinase MRCK alpha (Homo sapiens, UniProt Q5VT25). It counts as functional.
Test [6] has as its target Casein kinase II subunit alpha (Homo sapiens, UniProt P68400). In kind it is functional.
The target of test [7] is Insulin receptor (Homo sapiens, UniProt P06213). It counts as functional.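 Also: insulin receptor kinase tested as one member of a kinome-wide kinase panel.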
Test [8] addresses SRSF protein kinase 1 (Homo sapiens, UniProt Q96SB4). In kind it is functional.
In test [9] the target is Mitogen-activated protein kinase 12 (Homo sapiens, UniProt P53778). It counts as functional.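 Also: measured as one member of a kinome-wide kinase profiling panel.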
In test [10] the target is G protein-coupled receptor kinase 5 (Homo sapiens, UniProt P34947). Description: Navigating the Kinome. Panel member name: GPRK5. It counts as functional.
Test [11] has as its target Tyrosine-protein kinase ITK/TSK (Homo sapiens, UniProt Q08881). In kind it is functional.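 Also: affinity for ITK measured as one member of a broad kinase panel profiling binding across the kinome.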
The target of test [12] is RAC-gamma serine/threonine-protein kinase (Homo sapiens, UniProt Q9Y243). In kind it is functional.
The target of test [13] is Serine/threonine-protein kinase DCLK1 (Homo sapiens, UniProt O15075). In kind it is functional.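 Also: affinity for DCLK1 (listed as DCAMKL1) measured as one member of a kinome-wide kinase profiling panel.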
Test [14] addresses MAP/microtubule affinity-regulating kinase 3 (Homo sapiens, UniProt P27448). In kind it is functional.
The target of test [15] is Testis-specific serine/threonine-protein kinase 1 (Homo sapiens, UniProt Q9BXA7). In kind it is functional.
The target in test [16] is Tyrosine-protein kinase FRK (Homo sapiens, UniProt P42685). In kind it is functional.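 Also: FRK tested as one member of a kinome panel.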
For test [17], the target named is Serine/threonine-protein kinase PLK1 (Homo sapiens, UniProt P53350). It counts as functional.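 Also: PLK1 measured as one member of a kinome-wide profiling panel.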
The target in test [18] is Calcium/calmodulin-dependent protein kinase type 1 (Homo sapiens, UniProt Q14012). In kind it is functional.
The target of test [19] is Serine/threonine-protein kinase pim-2 (Homo sapiens, UniProt Q9P1W9). It counts as functional.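 Also: value comes from a broad kinase panel profiling study in which PIM2 was one of the panel members.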
For test [20], the target named is Protein kinase C gamma type (Homo sapiens, UniProt P05129). It counts as functional.
Test [21] addresses Protein-tyrosine kinase 6 (Homo sapiens, UniProt Q13882). It counts as functional.
For test [22], the target named is Interleukin-1 receptor-associated kinase 1 (Homo sapiens, UniProt P51617). It counts as functional.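 Also: IRAK1 tested as one member of a kinome panel.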
Test [23] concerns the target Serine/threonine-protein kinase PLK3 (Homo sapiens, UniProt Q9H4B4). It counts as functional.
The target in test [24] is Serine/threonine-protein kinase PAK 1 (Homo sapiens, UniProt Q13153). In kind it is functional.
Test [25] has as its system Streptococcus sp. 'group A'. Description: Streptococcus pyogenes SK(-)GAS viability under kanamycin – luminescence, BacTiterGlo, confirmation, counter-screen for streptokinase expression inhibitor project, dose response (AID 1900). In kind it is functional, organism-based.
The nature of test [26]: fluconazole-exposed Candida albicans growth modulators – fluorescence, retest, confirmation (AID 2467). In kind it is functional, cell-based.
The nature of test [27]: NIH-3T3 fibroblast cytotoxicity, dose response, cytotoxicity control, cell-based, fluorescence, Alamar Blue, secondary assay (AID 2327).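 Also: NIH-3T3 mouse fibroblasts cultured with fluconazole at 8 µg/mL.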 In kind it is functional.
The target of test [28] is Serine/threonine-protein phosphatase (Candida dubliniensis (strain CD36 / CBS 7987 / NCPF 3949 / NRRLY-17841) (Yeast), UniProt B9W6M3). The test is described as follows: blockers of CaCl2-induced CDRE-lacZ signaling – S. cerevisiae, luminescence, secondary, dose response (AID 2388).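 Also: yeast reporter cells carrying a calcineurin-responsive lacZ construct stimulated with calcium chloride; luminescent beta-galactosidase reporter signal in whole cells rather than isolated phosphatase activity; potency for inhibition where a drop in reporter signal means calcineurin blockade.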 In kind it is functional, cell-based.
The nature of test [29]: reduction of Shn3 3'UTR-driven luciferase in osteoblasts – cell-based, Clone20 osteoblasts, firefly luciferase, cherry-picked, dose response (AID 624132).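 Also: firefly luciferase luminescence from reporter carrying the Shn3 3'UTR in osteoblasts.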 In kind it is functional.
Test [30] deals with ATP-dependent molecular chaperone HSP82 (Candida albicans (strain WO-1) (Yeast), UniProt C4YTQ8). Description: steroid-induced GRE reporter decrease in yeast – S. cerevisiae, luminescence, Hsp90 inhibitor project, dose response (AID 2400).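 Also: beta-galactosidase luminescence from glucocorticoid response element reporter as proxy for Hsp90 function; inhibitor potency where signal loss means Hsp90 inhibition.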 It counts as functional, cell-based.

Activity calls are given as the source filed them.

Receptor tyrosine-protein kinase erbB-2, sequence (P04626 whole entry): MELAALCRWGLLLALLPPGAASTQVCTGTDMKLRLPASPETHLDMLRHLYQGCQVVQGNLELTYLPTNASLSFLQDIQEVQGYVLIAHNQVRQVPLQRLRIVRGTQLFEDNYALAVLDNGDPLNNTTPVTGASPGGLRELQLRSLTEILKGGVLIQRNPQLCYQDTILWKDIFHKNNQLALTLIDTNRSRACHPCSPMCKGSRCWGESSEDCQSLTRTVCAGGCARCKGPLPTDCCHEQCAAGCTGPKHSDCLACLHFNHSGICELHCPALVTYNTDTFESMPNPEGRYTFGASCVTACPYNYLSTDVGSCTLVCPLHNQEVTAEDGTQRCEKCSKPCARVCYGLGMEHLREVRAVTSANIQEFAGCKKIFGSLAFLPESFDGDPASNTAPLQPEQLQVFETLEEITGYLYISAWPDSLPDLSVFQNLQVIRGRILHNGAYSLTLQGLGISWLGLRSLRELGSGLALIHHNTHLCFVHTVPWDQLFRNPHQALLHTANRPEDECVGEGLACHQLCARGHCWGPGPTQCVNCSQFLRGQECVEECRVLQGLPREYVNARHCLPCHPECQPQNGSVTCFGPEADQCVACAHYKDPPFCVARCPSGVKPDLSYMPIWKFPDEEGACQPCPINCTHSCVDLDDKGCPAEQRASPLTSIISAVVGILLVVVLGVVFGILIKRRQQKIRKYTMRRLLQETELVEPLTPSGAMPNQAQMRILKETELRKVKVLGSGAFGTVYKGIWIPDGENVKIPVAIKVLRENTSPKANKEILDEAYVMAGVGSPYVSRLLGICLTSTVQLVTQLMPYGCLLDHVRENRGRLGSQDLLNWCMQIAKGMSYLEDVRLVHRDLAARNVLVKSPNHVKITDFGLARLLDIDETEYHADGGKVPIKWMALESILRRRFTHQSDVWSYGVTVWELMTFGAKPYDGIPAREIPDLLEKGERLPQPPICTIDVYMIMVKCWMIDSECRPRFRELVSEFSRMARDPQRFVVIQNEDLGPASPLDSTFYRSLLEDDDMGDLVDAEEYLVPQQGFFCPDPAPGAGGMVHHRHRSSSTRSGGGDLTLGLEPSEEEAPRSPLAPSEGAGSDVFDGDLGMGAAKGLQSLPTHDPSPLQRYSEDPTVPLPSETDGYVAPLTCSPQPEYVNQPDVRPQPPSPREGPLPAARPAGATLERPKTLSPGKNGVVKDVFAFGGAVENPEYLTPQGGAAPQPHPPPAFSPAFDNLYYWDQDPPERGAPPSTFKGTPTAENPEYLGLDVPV
Serine/threonine-protein kinase PLK3, sequence (Q9H4B4 whole entry): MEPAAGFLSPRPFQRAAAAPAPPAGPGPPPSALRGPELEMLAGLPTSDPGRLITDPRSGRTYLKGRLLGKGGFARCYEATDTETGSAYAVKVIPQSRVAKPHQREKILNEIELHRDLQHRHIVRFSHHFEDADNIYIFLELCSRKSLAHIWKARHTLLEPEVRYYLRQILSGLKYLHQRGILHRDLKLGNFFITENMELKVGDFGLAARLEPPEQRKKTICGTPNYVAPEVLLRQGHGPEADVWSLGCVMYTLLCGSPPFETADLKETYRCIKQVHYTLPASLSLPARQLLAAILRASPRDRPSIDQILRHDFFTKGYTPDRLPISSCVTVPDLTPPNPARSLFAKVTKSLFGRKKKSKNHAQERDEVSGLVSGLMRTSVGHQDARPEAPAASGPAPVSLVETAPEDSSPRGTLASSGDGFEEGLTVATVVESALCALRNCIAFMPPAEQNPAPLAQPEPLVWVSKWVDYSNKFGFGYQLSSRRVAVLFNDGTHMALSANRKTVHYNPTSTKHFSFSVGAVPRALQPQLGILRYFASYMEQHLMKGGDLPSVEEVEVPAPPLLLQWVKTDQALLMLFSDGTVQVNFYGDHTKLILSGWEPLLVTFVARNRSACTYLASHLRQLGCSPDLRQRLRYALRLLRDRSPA
Serine/threonine-protein kinase DCLK1, sequence (O15075 whole entry): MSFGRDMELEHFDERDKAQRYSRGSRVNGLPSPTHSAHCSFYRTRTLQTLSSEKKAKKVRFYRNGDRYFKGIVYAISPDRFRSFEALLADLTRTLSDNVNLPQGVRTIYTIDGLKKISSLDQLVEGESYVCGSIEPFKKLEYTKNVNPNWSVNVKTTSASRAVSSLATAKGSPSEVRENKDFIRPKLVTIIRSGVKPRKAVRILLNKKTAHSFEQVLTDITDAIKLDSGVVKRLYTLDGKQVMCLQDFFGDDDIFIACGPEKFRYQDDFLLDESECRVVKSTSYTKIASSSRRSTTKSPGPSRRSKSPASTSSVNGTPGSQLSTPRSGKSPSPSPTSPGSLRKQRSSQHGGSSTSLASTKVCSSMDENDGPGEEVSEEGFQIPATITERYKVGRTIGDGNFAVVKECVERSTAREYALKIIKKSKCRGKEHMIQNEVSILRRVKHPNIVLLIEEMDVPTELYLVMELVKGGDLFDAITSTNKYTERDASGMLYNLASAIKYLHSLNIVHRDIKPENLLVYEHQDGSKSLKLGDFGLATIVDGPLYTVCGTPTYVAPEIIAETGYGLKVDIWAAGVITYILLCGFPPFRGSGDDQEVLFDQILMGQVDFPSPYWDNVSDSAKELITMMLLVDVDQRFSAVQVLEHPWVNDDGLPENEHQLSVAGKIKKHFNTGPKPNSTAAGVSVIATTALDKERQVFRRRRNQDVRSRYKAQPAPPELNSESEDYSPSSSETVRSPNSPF
Tyrosine-protein kinase FRK, sequence (P42685 whole entry): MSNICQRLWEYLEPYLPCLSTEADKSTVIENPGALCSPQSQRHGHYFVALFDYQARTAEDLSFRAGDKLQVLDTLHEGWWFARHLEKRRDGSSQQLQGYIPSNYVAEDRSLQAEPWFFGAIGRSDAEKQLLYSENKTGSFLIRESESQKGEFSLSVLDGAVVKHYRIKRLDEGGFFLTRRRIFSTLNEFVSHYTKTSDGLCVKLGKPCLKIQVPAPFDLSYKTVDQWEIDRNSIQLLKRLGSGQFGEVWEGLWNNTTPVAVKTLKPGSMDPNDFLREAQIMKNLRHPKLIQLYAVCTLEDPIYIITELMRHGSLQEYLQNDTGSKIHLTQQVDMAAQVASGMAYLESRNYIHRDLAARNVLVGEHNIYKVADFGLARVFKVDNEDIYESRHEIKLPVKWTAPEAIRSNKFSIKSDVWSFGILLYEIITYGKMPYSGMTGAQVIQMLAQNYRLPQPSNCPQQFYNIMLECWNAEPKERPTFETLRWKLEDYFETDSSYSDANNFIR
Fibroblast growth factor receptor 3, sequence (P22607 whole entry): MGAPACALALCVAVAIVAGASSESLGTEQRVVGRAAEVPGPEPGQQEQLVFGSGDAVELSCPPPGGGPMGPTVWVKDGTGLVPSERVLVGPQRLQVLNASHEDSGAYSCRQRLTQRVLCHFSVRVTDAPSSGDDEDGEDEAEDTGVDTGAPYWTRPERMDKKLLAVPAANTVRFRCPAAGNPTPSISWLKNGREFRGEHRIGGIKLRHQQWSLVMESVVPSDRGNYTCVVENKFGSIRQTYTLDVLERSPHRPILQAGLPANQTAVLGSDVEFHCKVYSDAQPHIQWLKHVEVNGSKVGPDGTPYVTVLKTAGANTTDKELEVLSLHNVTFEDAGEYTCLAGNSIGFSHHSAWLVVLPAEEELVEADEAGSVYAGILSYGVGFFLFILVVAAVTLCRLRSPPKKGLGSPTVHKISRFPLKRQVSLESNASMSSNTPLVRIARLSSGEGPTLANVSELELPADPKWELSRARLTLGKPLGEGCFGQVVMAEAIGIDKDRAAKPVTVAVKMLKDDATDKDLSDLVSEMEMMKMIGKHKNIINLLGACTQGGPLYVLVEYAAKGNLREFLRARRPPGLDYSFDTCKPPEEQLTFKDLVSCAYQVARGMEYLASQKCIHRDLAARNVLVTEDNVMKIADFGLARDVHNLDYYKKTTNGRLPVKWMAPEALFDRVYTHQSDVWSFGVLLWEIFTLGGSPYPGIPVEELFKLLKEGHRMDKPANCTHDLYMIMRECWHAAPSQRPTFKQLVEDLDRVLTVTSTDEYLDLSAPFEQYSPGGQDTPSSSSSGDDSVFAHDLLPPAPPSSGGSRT
Calcium/calmodulin-dependent protein kinase type 1, sequence (Q14012 whole entry): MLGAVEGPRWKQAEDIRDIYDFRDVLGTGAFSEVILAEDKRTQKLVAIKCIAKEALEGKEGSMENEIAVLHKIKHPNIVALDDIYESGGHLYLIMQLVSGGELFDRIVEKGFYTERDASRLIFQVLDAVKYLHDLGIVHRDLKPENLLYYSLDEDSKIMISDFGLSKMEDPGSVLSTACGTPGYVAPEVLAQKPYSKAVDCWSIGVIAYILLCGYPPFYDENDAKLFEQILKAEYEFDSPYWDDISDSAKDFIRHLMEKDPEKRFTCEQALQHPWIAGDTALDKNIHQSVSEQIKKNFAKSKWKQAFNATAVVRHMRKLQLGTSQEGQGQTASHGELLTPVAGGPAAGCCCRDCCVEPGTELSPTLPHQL

Regarding `OCC[n+]1c2ccccc2nc2ccc(N3CCOCC3)cc21`, the IC50 in test [1] was 28000 nM (active).

As to `CS(=O)(=O)N(Cc1ccc2[nH]c(=O)c3cccn3c2c1)C1CC1`, the Ki in test [2] was 31.6 nM (active); in test [3] it was 158 nM (active); in test [4], > 2000 nM (inactive); in test [5], 2000 nM (active); in [6] it was 15.8 nM (active); in [7], > 5010 nM (inactive). In addition, the Ki in test [8] was 200 nM (active); in test [9] it was 316 nM (active); in [10], > 3980 nM (inactive); in test [11] it was > 1580 nM (inactive); in [12] it was 79.4 nM (active); in [13], > 10000 nM (inactive). The Ki was > 6310 nM (inactive) in test [14]; > 1580 nM (inactive) in [15]; > 2510 nM (inactive) in test [16]; 10 nM (active) in test [17]; > 5010 nM (inactive) in [18]; > 1580 nM (inactive) in [19]. The Ki in test [20] was 1260 nM (active); in [21], 2000 nM (active); in [22], 158 nM (active); in test [23], 15.8 nM (active); in [24], 3160 nM (active).

`Cc1cc(NC(c2ccc(Cl)cc2)c2ccc3cccnc3c2O)no1` (stereo not given): the EC50 in test [25] is 416 nM (active); in test [26], 741 nM (active); in test [27] it was 22000 nM (active); in test [28] it was > 180000 nM (inactive); in test [30], 20700 nM (active). The AC50 in test [29] is 1050 nM (active).

For the origin of these results see ChEMBL document CHEMBL1201862, “PubChem BioAssay data set” (2004).
